In article PMC12682123, “Positron emission tomography to assess drug occupancy at peripheral and central incretin receptors” (eBioMedicine, 2025):
Like-named read-outs stand apart in the source and are kept apart here. No end group written: not given here.

Experiments:
human GLP-1R = conditions: 10 nM tracer; for reduction of [^68Ga]Ga-DO3A-Exendin-4 binding: 60 min, RT, p < 0.0001
Protocol: The receptor specificity assay was repeated four times.
The following procedures were then performed for both assays: After incubation, the sections were washed with cold PBS (3× 1 min), dipped in MilliQ water, and air-dried at 37 °C for 10 min. Finally, the sections were exposed to digital phosphorimager plates (BAS-MS, Fujifilm) overnight (>10 radioactive half-lives) followed by digitalisation using a phosphorimage scanner (Amersham Typhoon FLA 9500 Phosphor Imager, GE) with a 50-μm pixel size for image visualisation. A 10 μl reference droplet, containing a known amount of radioactivity, was incorporated to facilitate the quantification of the autoradiogram.
The pixel values, measured in counts/mm^2, were transformed into Bq/mm^2 using the internal reference.

GLP-1R [1] = test system: GLP-1R
Source text: Pigs (n = 9) were positioned in the PET/CT scanner (Discovery MI, GE Healthcare) in a supine position with the brain at the centre of the Field of View (FOV). […] The peptide mass dose was chosen to avoid self-block of the GLP-1R by unlabelled DO3A-Exendin-4 peptide in the formulation and was based on previous dose-escalation studies in non-human primates.[23] A dynamic 60-min PET scan was started at tracer injection, serving as the baseline scan to visualise and quantify GLP-1R expression under normal physiological conditions prior to drug intervention. Following the dynamic scan, a whole-body CT was acquired, immediately followed by a whole-body static PET scan covering the regions from the brain to the bladder.
One experiment used unlabelled DO3A-VS-Exendin-4 (6 μg/kg) as a positive control (Table 4).
The follow-up scan was designed to assess the decreased binding of the tracer to its receptor, which, when compared to the baseline scan, would indicate reduced receptor availability, such as that caused by drug occupancy at the target GLP-1 receptor.
The reconstructed dynamic and whole-body static PET images were analysed using PMOD Base Functionality (PBAS) tool (PMOD Technologies LLC, Zurich, Switzerland) through manual segmentation on trans-axial PET and CT projections. Segmented tissues included the descending aorta, pancreas, liver, spleen, kidneys, and muscle. The tracer distribution in brain regions was measured by automated segmentation of brain regions. This was achieved by fusing the acquired PET dynamic images with the PMOD MRI pig brain atlas. […] CVOs, such as pituitary gland, were not included in the brain atlas and were thus segmented manually.
(§2) The convention to the SUV was corrected to the time and administered amount of radioactivity (in MBq) and the weight (in kilograms) of the pig.
The target engagement or drug occupancy for each experiment was calculated by subtracting the SUV in a tissue at the follow-up scan from the SUV in the same tissue at the baseline scan. The difference was divided by the SUV in tissue at baseline and multiplied by 100 to reach the percentage of drug occupancy (Equation 1):Equation 1 Occupancy(%)=SUVbaseline−SUVfollow−up/SUVbaseline×100
All PET measurements were expressed as average SUVmean.

mice = conditions: central administration; cited from earlier work
Source text: One of the advancements of GLP-1R/GIPR co-activation is potentially the reduced nausea, food aversion, and emesis associated with GLP-1R-based treatment, in addition to an even more increased reduction in appetite and calorie intake.[26]^,[39] These effects may be associated with central activation of GLP-1 receptors by these drugs, and it has been proposed that the concurrent activation of central GIPR by tirzepatide exerts an anti-emetic effect, thereby improving tolerability to GLP-1 receptor–mediated side effects.

GIPR [2] = experiment: In vivo GIPR drug occupancy in pigs using [^68Ga]S02-GIP-T4 PET; set-up: species or system pig; conditions: infusion 0.5/50 μg/ml from 30 min before and throughout second scan, n = 1
Protocol: The study design for GIPR occupancy assessment in pigs was identical to that of GLP-1R, except for the following differences:
The pigs (n = 5) were positioned in the PET/CT scanner in a supine position with either the brain (n = 2) or the pancreas (n = 3) in the FOV when using [^68Ga]S02-GIP-T4. A target dose of 0.5–1 MBq/kg of [^68Ga]S02-GIP-T4, corresponding to a standardised peptide mass dose of 0.1 μg/kg, was administered for both baseline and follow-up scans (Tables 5 and 6). The peptide mass dose was chosen to avoid self-block of the GIPR, and based on previous dose-escalation studies in non-human primates.[16]
SAR441255 was administered subcutaneously at a dose of 100 μg/kg in four pigs, as described above (Table 5). […]
The reconstructed dynamic and whole-body static PET images were analysed using PMOD Base Functionality (PBAS) tool (PMOD Technologies LLC, Zurich, Switzerland) through manual segmentation on trans-axial PET and CT projections. […] The tracer distribution in brain regions was measured by automated segmentation of brain regions. […]
as §2
The target engagement or drug occupancy for each experiment was calculated by subtracting the SUV in a tissue at the follow-up scan from the SUV in the same tissue at the baseline scan. […]

[3] = cited from earlier work
Source text: Tirzepatide is the first dual GLP-1R/GIPR agonist approved for the treatment of type 2 diabetes (T2D).[11]

GLP-1R [4] = conditions: in vitro; cited from earlier work
Source text: (§1) This can likely be explained by the lower GLP-1R affinity of tirzepatide, which instead is shifted towards higher affinity to the GIPR.[26]

[5] = cited from earlier work; remark: listed apart in the source
Source text: as §1

GIPR [6] = conditions: in vitro; cited from earlier work
Source text: as §1

[7] = pre-administration of unlabelled peptide as positive control, 6 μg/kg / 10 μg/kg (Table 4), n = 1
[8] = even at highest doses (450 μg/kg) s.c.

In the case of “DO3A-Exendin-4: unlabelled peptide used for blocking, positive control; made by in-house SPPS by Sanofi”, the “reduction of [^68Ga]Ga-DO3A-Exendin-4 binding” value (human GLP-1R; pre-incubated with 1 μM (10 min, PBS + 1% BSA)) is reported as 80 ± 16%, the “decrease of [^68Ga]Ga-DO3A-Exendin-4 uptake in pancreas” value (GLP-1R [1]; [7]) is reported as 73% and the “decrease of [^68Ga]Ga-DO3A-Exendin-4 uptake in pituitary gland” value (GLP-1R [1]; [7]) is reported as 53%. The “reduction of [^68Ga]Ga-DO3A-Exendin-4 uptake in hypothalamic region” value (GLP-1R [1]; [7]) was 55% and the “reduction of [^68Ga]Ga-DO3A-Exendin-4 uptake in mammillary body” value (GLP-1R [1]; [7]) was 60%.

In the case of “glucagon-like peptide-1 (HAEGTFTSDVSSYLEGQAAKEFIAWLVKGR; ends and bridges not checked; UniProt P01275 98-127, looked up) [GLP-1, endogenous incretin hormone]”, the food intake (mice) is listed as “reduced food intake”.

In the case of “glucose-dependent insulinotropic polypeptide [GIP (1–42)]”, the “decrease of pancreatic [^68Ga]S02-GIP-T4 signal” value (GIPR [2]) is listed as 24% and the food intake (mice) is listed as “reduced food intake”.

In the case of “tirzepatide: first dual GLP-1R/GIPR agonist approved for the treatment of type 2 diabetes”, the “glucose-lowering effect vs mono GLP-1R agonism” value [3] is given as “greater glucose-lowering effect”, the “weight reduction vs mono GLP-1R agonism” value [3] is given as “greater weight reduction” and the “competition with [^68Ga]Ga-DO3A-Exendin-4 at GLP-1R” value (human GLP-1R; 10 μM) is given as “competed for an overlapping binding site of GLP-1R”. For the same substance, the “reduction of [^68Ga]Ga-DO3A-Exendin-4 binding” value (human GLP-1R; pre-incubated with 10 μM) was 84.9 ± 7%, the “occupancy in appetite-regulating brain regions” value (GLP-1R [1]; 50–450 μg/kg s.c., experimental design not aligned with Tmax) was “did not show detectable occupancy” and the “GLP-1R occupancy in pancreas, did not exceed” value (GLP-1R [1]; [8]) was at most 60%. For the same substance, the “GLP-1R occupancy in pituitary, did not exceed” value (GLP-1R [1]; [8]) was at most 60%, the “affinity to GLP-1R vs native GLP-1” value (GLP-1R [4]) was “fivefold lower affinity” and the “Tmax (in words)” value ([5]; extended plasma half-life, no reference given) was “on the order of days”. The Tmax ([5]; subcutaneous) was 8 to 72 h and the “affinity to GIPR vs endogenous GIP(1–42)” value (GIPR [6]) was “same affinity”.
